The results in this text go back to ChEMBL document CHEMBL5126524, “Niemann-Pick C1-Like 1 inhibitors for reducing cholesterol absorption” (Eur J Med Chem, 2022).

The target of the assay is T1, NPC1-like intracellular cholesterol transporter 1 (Homo sapiens, UniProt Q9UHC9).
T1 sequence (Q9UHC9 whole entry): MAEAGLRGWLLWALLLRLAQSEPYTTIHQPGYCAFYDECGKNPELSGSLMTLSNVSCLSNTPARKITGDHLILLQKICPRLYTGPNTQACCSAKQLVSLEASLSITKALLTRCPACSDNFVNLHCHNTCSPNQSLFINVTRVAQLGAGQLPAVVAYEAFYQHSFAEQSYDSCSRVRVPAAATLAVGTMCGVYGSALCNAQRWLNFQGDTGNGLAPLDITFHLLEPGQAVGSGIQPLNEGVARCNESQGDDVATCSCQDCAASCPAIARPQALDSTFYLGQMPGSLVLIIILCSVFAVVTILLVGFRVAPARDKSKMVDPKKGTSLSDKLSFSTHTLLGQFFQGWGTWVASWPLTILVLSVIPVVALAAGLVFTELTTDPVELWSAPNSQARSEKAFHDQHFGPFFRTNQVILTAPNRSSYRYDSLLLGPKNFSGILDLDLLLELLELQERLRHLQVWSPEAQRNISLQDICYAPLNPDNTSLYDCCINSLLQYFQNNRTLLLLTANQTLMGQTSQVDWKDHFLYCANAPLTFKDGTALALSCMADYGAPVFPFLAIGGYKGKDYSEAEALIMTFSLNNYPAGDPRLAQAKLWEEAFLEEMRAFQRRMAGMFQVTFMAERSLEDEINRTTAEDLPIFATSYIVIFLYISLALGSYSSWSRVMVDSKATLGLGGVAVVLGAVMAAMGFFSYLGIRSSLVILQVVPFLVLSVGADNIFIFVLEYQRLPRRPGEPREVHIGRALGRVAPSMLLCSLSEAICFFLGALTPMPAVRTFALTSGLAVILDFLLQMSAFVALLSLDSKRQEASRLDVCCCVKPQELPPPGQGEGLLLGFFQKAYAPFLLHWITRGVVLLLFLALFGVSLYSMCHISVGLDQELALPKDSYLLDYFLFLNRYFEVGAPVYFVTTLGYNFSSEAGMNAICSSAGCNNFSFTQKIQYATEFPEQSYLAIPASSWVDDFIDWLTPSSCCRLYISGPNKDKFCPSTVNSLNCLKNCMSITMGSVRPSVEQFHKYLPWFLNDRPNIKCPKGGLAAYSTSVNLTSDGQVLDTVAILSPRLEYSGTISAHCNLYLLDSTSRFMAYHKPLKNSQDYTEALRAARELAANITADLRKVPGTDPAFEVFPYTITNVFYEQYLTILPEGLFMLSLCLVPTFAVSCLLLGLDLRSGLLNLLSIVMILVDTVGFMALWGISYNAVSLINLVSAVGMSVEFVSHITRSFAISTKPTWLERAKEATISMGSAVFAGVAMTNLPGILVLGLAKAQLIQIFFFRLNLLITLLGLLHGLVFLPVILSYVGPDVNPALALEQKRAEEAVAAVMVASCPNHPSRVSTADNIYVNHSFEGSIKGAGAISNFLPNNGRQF
The assay can be described thus: Inhibition of NPC1L1 (unknown origin) assessed as inhibition of cholesterol cellular uptake by BCA colorimetric assay.

`O=C1[C@H](CC[C@H](O)c2ccc(F)cc2)[C@@H](c2ccc(O)cc2)N1c1ccc(F)cc1` [EZETIMIBE]: the half-maximal inhibitory concentration (IC50) turned out to be 370 nM.

The term IC50 denotes the point on the concentration scale where inhibition reaches its midpoint.
